Measured values: patent publication US8618154B2, “LXR modulators” (Bristol-Myers Squibb Company, priority 2009, dated 2013)

Assay: High throughput metabolic stability in human microsomes
Type: in vitro ADME
Settings: parent compound remaining at 10 minutes, human liver microsomes
Experimental: The metabolic stability assay evaluates CYP-mediated metabolic stability in vitro using Human liver microsomes after a ten-minute incubation.
Test compound is received as a 3.5 mM stock solution in 100 percent DMSO. Compound is diluted to create a 50 μM acetonitrile (ACN) solution containing 1.4% DMSO, which is then used as a 100× stock for incubation with human liver microsomes. Each compound is tested in duplicate. Compound, NADPH and liver microsome solutions are combined for incubation in three steps: • 1) 152 μl of liver microsome suspension, protein concentration of 1.1 mg/ml in 100 mM NaPi, pH 7.4, 5 mM MgCl2 buffer, is pre-warmed at 37° C. • 2) 1.7 μl of 50 μM compound (98.6% ACN, 1.4% DMSO) is added to the same tube and pre-incubated at 37° C. for 5 minutes. • 3) The reaction is initiated by the addition of 17 μl of pre-warmed 10 mM NADPH solution in 100 mM NaPi, pH 7.4.
Reaction components are mixed well, and 75 μl are immediately transferred into 150 μl quench/stop solution (zero-time point, T0). Reactions are incubated at 37° C. for 10 minutes and then an additional 75 μl aliquot is transferred into 150 μl quench solution. Acetonitrile containing 100 μM DMN (a UV standard for injection quality control), is used as the quench solution to terminate metabolic reactions.
Quenched mixtures are centrifuged at 1500 rpm (˜500× g) in an Allegra X-12 centrifuge, SX4750 rotor (Beckman Coulter Inc., Fullerton, Calif.) for fifteen minutes to pellet denatured microsomes. A volume of 90 μl of supernatant extract, containing the mixture of parent compound and its metabolites, is then transferred to a separate 96-well plate for UV-LC/MS-MS analysis to determine the per cent of parent compound that is remaining in the mixture.
The mass spectrometric conditions obtained from automated infusion are used to analyze incubation samples from the Metabolic Stability assay. The injection volume is 5 μl and the flow rate is 0.8 ml/min. The gradient used is show in the table below. All samples are injected with the gradient using mobile phase A and B first. If necessary (for instance, for chromatographic reasons), samples are re-injected with the same gradient, but using mobile phase C and D. All LC-MS/MS analysis parameters are captured electronically in the raw data files.
Peak integration is performed with the Xcalibur™ software. The percent remaining calculation is performed by comparing the LC-MS/MS peak areas from the T10minute samples to those from the T0minute samples for each compound.

SMILES | Human Microsome % Remaining
CC(C)(O)c1cn(-c2ccc(-c3cc(F)c(CO)c(S(C)(=O)=O)c3)cc2Cl)c(Cc2ccc(F)cc2Cl)n1 [Example 13, 2-(1-(3-chloro-3′-fluoro-4′-(hydroxymethyl)-5′-(methylsulfonyl)biphenyl-4-yl)-2-(2-chloro-4-fluorobenzyl)-1H-imidazol-4-yl)propan-2-ol] | >80%
CC(C)(O)c1cn(-c2ccc(-c3cc(F)c(CO)c(S(C)(=O)=O)c3)cc2)c(Cc2cc(F)ccc2Cl)n1 [Example 19, 2-[2-(2-Chloro-5-fluoro-benzyl)-1-(3′-fluoro-4′-hydroxymethyl-5′-methanesulfonyl-biphenyl-4-yl)-1H-imidazol-4-yl]-propan-2-ol] | >80%
CC(C)(O)c1cn(-c2ccc(-c3cc(F)c(CO)c(S(C)(=O)=O)c3)cc2F)c(Cc2ccccc2Cl)n1 [Example 20, 2-[2-(2-Chloro-benzyl)-1-(3,3′-difluoro-4′-hydroxymethyl-5′-methanesulfonyl-biphenyl-4-yl)-1H-imidazol-4-yl]-propan-2-ol] | >80%
CC(C)(O)c1cn(-c2ccc(-c3cc(F)c(CO)c(S(C)(=O)=O)c3)cc2F)c(C(C)(C)c2c(F)cccc2Cl)n1 [Example 7, 2-(2-(2-(2-chloro-6-fluorophenyl)propan-2-yl)-1-(3,3′-difluoro-4′-(hydroxymethyl)-5′-(methylsulfonyl)biphenyl-4-yl)-1H-imidazol-4-yl)propan-2-ol] | >80%
CC(C)(O)c1cn(-c2ccc(-c3cc(F)c(CO)c(S(C)(=O)=O)c3)cc2)c(C(C)(C)c2cccc(F)c2Cl)n1 [Example 4, 2-(2-(2-(2-chloro-3-fluorophenyl)propan-2-yl)-1-(3′-fluoro-4′-(hydroxymethyl)-5′-(methylsulfonyl)biphenyl-4-yl)-1H-imidazol-4-yl)propan-2-ol] | >80%
CC(C)(O)c1cn(-c2ccc(-c3cc(F)c(CO)c(S(C)(=O)=O)c3)cc2)c(Cc2c(Cl)cccc2Cl)n1 [Example 18, 2-(2-(2,6-dichlorobenzyl)-1-(3′-fluoro-4′-(hydroxymethyl)-5′-(methylsulfonyl)biphenyl-4-yl)-1H-imidazol-4-yl)propan-2-ol] | >80%
CC(C)(O)c1cn(-c2ccc(-c3cc(F)c(CO)c(S(C)(=O)=O)c3)cc2)c(Cc2ccc(Cl)cc2Cl)n1 [Example 15, 2-(2-(2,4-dichlorobenzyl)-1-(3′-fluoro-4′-(hydroxymethyl)-5′-(methylsulfonyl)biphenyl-4-yl)-1H-imidazol-4-yl)propan-2-ol] | >80%
CC(C)(O)c1cn(-c2ccc(-c3cc(F)c(CO)c(S(C)(=O)=O)c3)cc2F)c(C(C)(C)c2c(Cl)cccc2Cl)n1 [Example 9, 2-(2-(2-(2,6-dichlorophenyl)propan-2-yl)-1-(3,3′-difluoro-4′-(hydroxymethyl)-5′-(methylsulfonyl)biphenyl-4-yl)-1H-imidazol-4-yl)propan-2-ol] | >80%
CC(C)(O)c1cn(-c2ccc(-c3cc(F)c(CO)c(S(C)(=O)=O)c3)cc2F)c(Cc2ccc(F)cc2Cl)n1 [Example 14, 2-(2-(2-chloro-4-fluorobenzyl)-1-(3,3′-difluoro-4′-(hydroxymethyl)-5′-(methylsulfonyl)biphenyl-4-yl)-1H-imidazol-4-yl)propan-2-ol] | >80%
Cc1cc(-c2cc(F)c(CO)c(S(C)(=O)=O)c2)ccc1-n1cc(C(C)(C)O)nc1C(C)(C)c1c(F)cccc1Cl [Example 2, 2-(2-(2-(2-chloro-6-fluorophenyl)propan-2-yl)-1-(3′-fluoro-4′-(hydroxymethyl)-3-methyl-5′-(methylsulfonyl)biphenyl-4-yl)-1H-imidazol-4-yl)propan-2-ol] | >80%
CC(C)(O)c1cn(-c2ccc(-c3cc(F)c(CO)c(S(C)(=O)=O)c3)cc2F)c(C(C)(C)c2ccccc2Cl)n1 [Example 6, 2-(2-(2-(2-Chloro-phenyl)propan-2-yl)-1-(3,3′-difluoro-4′-hydroxymethyl-5′-(methylsulfonyl)biphenyl-4-yl)-1H-imidazol-4-yl)-propan-2-ol] | >80%
CC(c1c(Cl)cccc1Cl)c1nc(C(C)(C)O)cn1-c1ccc(-c2cc(F)c(CO)c(S(C)(=O)=O)c2)cc1F (stereo not drawn) [Example 21, 2-{2-[1-(2,6-dichlorophenyl)ethyl]-1-[3,3′-difluoro-4′-(hydroxymethyl)-5′-(methylsulfonyl)biphenyl-4-yl]-1H-imidazol-4-yl}propan-2-ol] | >80%
CC(C)(O)c1cn(-c2ccc(-c3cc(F)c(CO)c(S(C)(=O)=O)c3)cc2Cl)c(C(C)(C)c2c(Cl)cccc2Cl)n1 [Example 3, 2-(1-(3-chloro-3′-fluoro-4′-(hydroxymethyl)-5′-(methylsulfonyl)biphenyl-4-yl)-2-(2-(2,6-dichlorophenyl)propan-2-yl)-1H-imidazol-4-yl)propan-2-ol] | >80%
CC(C)(O)c1cn(-c2ccc(-c3cc(F)c(CO)c(S(C)(=O)=O)c3)cc2)c(C(C)(C)c2ccccc2F)n1 [Example 1, 2-(1-(3′-fluoro-4′-(hydroxymethyl)-5′-(methylsulfonyl)biphenyl-4-yl)-2-(2-(2-fluorophenyl)propan-2-yl)-1H-imidazol-4-yl)propan-2-ol] | >80%
CC(C)(O)c1cn(-c2ccc(-c3cc(F)c(CO)c(S(C)(=O)=O)c3)cc2F)c(Cc2ccccc2C(F)(F)F)n1 [Example 12, 2-(1-(3,3′-difluoro-4′-(hydroxymethyl)-5′-(methylsulfonyl)biphenyl-4-yl)-2-(2-(trifluoromethyl)benzyl)-1H-imidazol-4-yl)propan-2-ol] | >80%
CC(C)(O)c1cn(-c2ccc(-c3cc(F)c(CO)c(S(C)(=O)=O)c3)cc2F)c(Cc2ccccc2F)n1 [Example 16, 2-(1-(3,3′-difluoro-4′-(hydroxymethyl)-5′-(methylsulfonyl)biphenyl-4-yl)-2-(2-fluorobenzyl)-1H-imidazol-4-yl)propan-2-ol] | >80%
CC(C)(O)c1cn(-c2ccc(-c3cc(F)c(CO)c(S(C)(=O)=O)c3)cc2F)c(C(C)(C)c2ccccc2F)n1 [Example 8, 2-{1-(3,3′-Difluoro-4′-hydroxymethyl-5′-methanesulfonyl-biphenyl-4-yl)-2-[2-(2-fluorophenyl)propan-2-yl]-1H-imidazol-4-yl}-propan-2-ol] | >80%
CC(C)(O)c1cn(-c2ccc(-c3cc(F)c(CO)c(S(C)(=O)=O)c3)cc2)c(C(C)(C)c2c(Cl)cccc2Cl)n1 [Example 5, 2-(2-(2-(2,6-dichlorophenyl)propan-2-yl)-1-(3′-fluoro-4′-(hydroxymethyl)-5′-(methylsulfonyl)biphenyl-4-yl)-1H-imidazol-4-yl)propan-2-ol] | >80%
Cc1ccccc1Cc1nc(C(C)(C)O)cn1-c1ccc(-c2cc(F)c(CO)c(S(C)(=O)=O)c2)cc1 [Example 17, 2-(1-(3′-fluoro-4′-(hydroxymethyl)-5′-(methylsulfonyl)biphenyl-4-yl)-2-(2-methylbenzyl)-1H-imidazol-4-yl)propan-2-ol] | >80%
CC(C)(O)c1cn(-c2ccc(-c3cccc(S(C)(=O)=O)c3)cc2)c(C(C)(C)c2ccccc2Cl)n1 [Compound No. 19, Table 1, WO 2007/002563, reference compound] | >80%
CC(C)(O)c1cn(-c2ccc(-c3cc(F)c(CO)c(S(C)(=O)=O)c3)cc2F)c(Cc2ccc(Cl)cc2Cl)n1 [Example 11, 2-(2-(2,4-dichlorobenzyl)-1-(3,3′-difluoro-4′-(hydroxymethyl)-5′-(methylsulfonyl)biphenyl-4-yl)-1H-imidazol-4-yl)propan-2-ol] | >80%
